Experimental data as given in BigSolDB 2.1.

Details: in water

CCCCn1cc[n+](C)c1.F[P-](F)(F)(F)(F)F
Details | solubility (mole fraction)
278.75 K | 0.0009
283.55 K | 0.00102
289.55 K | 0.00108
295.95 K | 0.00126
302.25 K | 0.00146
310.35 K | 0.00171
314.95 K | 0.00195
319.65 K | 0.00218
326.65 K | 0.00244
333.25 K | 0.0029
338.35 K | 0.00339
344.35 K | 0.00371
350.85 K | 0.00444
357.35 K | 0.00532
362.15 K | 0.00628

CCCCCCCCn1cc[n+](C)c1.F[P-](F)(F)(F)(F)F
Details | solubility (mole fraction)
285.85 K | 9.4e-05
293.95 K | 0.000116
299.05 K | 0.000128
307.35 K | 0.000154
311.35 K | 0.000169
318.15 K | 0.000197
324.75 K | 0.000216
328.15 K | 0.000239
331.15 K | 0.000257
338.85 K | 0.000304
343.35 K | 0.000345
348.45 K | 0.000383
353.75 K | 0.000445
358.55 K | 0.000505
364.55 K | 0.000574

CCCCCCn1cc[n+](C)c1.F[P-](F)(F)(F)(F)F
Details | solubility (mole fraction)
286.45 K | 0.000326
296.65 K | 0.00041
302.65 K | 0.000448
307.85 K | 0.000503
312.95 K | 0.000545
319.35 K | 0.00066
326.35 K | 0.000734
331.75 K | 0.000852
336.15 K | 0.000919
340.25 K | 0.00105
345.85 K | 0.00113
350.75 K | 0.00128
355.25 K | 0.00144
359.95 K | 0.00157
363.05 K | 0.0018
